These are literature values, as cited in patent US5346701A, “Transmucosal delivery of macromolecular drugs” (TheraTech, Inc., priority 1993, dated 1994).

The conditions of data set [1]: nasal membranes.
The test system of data set [2] is renal mesengial cells.
Data set [3] concerns vascular smooth muscle cells.
For data set [4], the system named is angiogenesis.
Data set [5] has as its system antithrombin III (AT III). The conditions noted are these: clinically used heparin.
The test system of data set [6] is thrombin.
For data set [7], the system named is platelets. The conditions noted are these: in vitro.
In data set [8] the test system is delayed-typehypersensitivity.

Turning to `C[C@H](CCC(=O)O)[C@H]1CC[C@H]2[C@@H]3[C@H](O)C[C@@H]4C[C@H](O)CC[C@]4(C)[C@H]3CC[C@]12C` [chenodeoxycholate], the “order of effectiveness as enhancer of insulin absorption” value (shortened to “order of effectiveness”) in data set [1] is “deoxycholate<chenodeoxycholate<cholate<ursodeoxycholate”.
For `C[C@H](CCC(=O)O)[C@H]1CC[C@H]2[C@@H]3[C@H](O)C[C@@H]4C[C@H](O)CC[C@]4(C)[C@H]3C[C@H](O)[C@]12C` [cholate], the “order of effectiveness” value in data set [1] is given as “deoxycholate<chenodeoxycholate<cholate<ursodeoxycholate”.
Consider heparin, for which, in data set [2], the “proliferation of renal mesengial cells” value was “inhibits the proliferation”. Besides, in data set [3], the “proliferation of vascular smooth muscle cells” value is “inhibits the proliferation”. Also, the “prolongation of partial thromboplastin time or release of plasma lipase activity” value (colon of a baboon, without bile salt) is on record as “not apparent”. Moreover, where the note is “with sodium cholate or deoxycholate in the formulation”, the “activity (partial thromboplastin time / plasma lipase)” value was “significant activity was detected”. Further, in [4], the angiogenesis result is “inhibits angiogenesis”. Further, the “proportion of heparin having high affinity for AT III” value in data set [5] is recorded as “Approximately 33%”. The “acceleration of rate of thrombin inactivation” value in [6] was “up to 2000 -fold”. For the same molecule, in data set [7], the release of platelets result is given as “enhances the release of platelets”. In addition, the delayed-type hypersensitivity entry in data set [8] was “suppresses”.
Consider `C[C@H](CCC(=O)O)[C@H]1CC[C@H]2[C@@H]3[C@@H](O)C[C@@H]4C[C@H](O)CC[C@]4(C)[C@H]3CC[C@]12C` [ursodeoxycholate], for which, in [1], the “order of effectiveness” value is reported as “deoxycholate<chenodeoxycholate<cholate<ursodeoxycholate”.
